Experimental data: patent publication US20230015478A1, “GLP-1 RECEPTOR AGONISTS HAVING IMPROVED PHARMACOLOGICAL AND DRUG DELIVERY PROPERTIES” (priority 2021, published 2023)
Read-outs that look alike come from different tables or passages of the source. One block for each compound: values may come before it. Square brackets hold non-standard residues; d marks the D form. Peptide text beside a SMILES is read from it. Bip = N[C@@H](Cc1ccc(-c2ccccc2)cc1)C(=O)O; αMePhe(2-F) = C[C@](N)(Cc1ccccc1F)C(=O)O; Phe(2-F) = N[C@@H](Cc1ccccc1F)C(=O)O; hTyr = N[C@@H](CCc1ccc(O)cc1)C(=O)O; αMeP = C[C@@]1(C(=O)O)CCCN1; AEEA = NCCOCCOCC(=O)O; Aib = CC(C)(N)C(=O)O

Molecular target: T1, hGLP1 receptor (Homo sapiens, UniProt P43220)
T1 construct: expressed in transfected cells; host or cells: HEK (human embryonic kidney) cells co-expressing hGLP1 receptor and CRE-Luciferase
Assay: cAMP HTRF agonist assay in HEK cells co-expressing hGLP1 receptor and CRE-Luciferase
Type: cell-based
Procedure: Human embryonic kidney cells (HEK) co-expressing the hGLP1 receptor and CRE-Luciferase construct were used to determine agonist potency in this assay. The cells were thawed briefly at 37° C., transferred to a sterile tube and re-suspended in complete media at 37° C. Cells were centrifuged at 1000 rpm for 5 minutes and cells collected; cells were re-suspended in assay buffer consisting of DPBS (GIBCO) with 500 μM of the phosphodiesterase inhibitor IBMX. […] The optimal cell density was determined to be 1000 cells/well; cells were added to wells in 384-well plates containing appropriate pre-prepared dilutions of compounds (test peptides or reference compound exendin-4), sealed and incubated with CO2 for 30 min. Test peptide solutions were diluted from 10 mM stock solutions; for most peptides an initial run was performed in duplicate from a maximal concentration of 1.0 μM, with 11 concentrations tested for each peptide using serial 1:3 dilution from this maximal concentration. […] The agonist assay was a homogeneous time-resolved fluorescence (HTRF) assay (Cisbio).
Following incubation of the cells for 30 minutes with test or reference peptides, 5 μL of the cAMP acceptor cAMP-d2, prepared previously as a working solution from frozen stock (1:20 dilution), was added to each well of the assay plate, along with 5 μL of anti-cAMP antibody-cryptate working solution (diluted 1:20 from frozen stock). The wells were incubated for 1 hour at room temperature, and fluorescence was then read at 665 and 615 nm with an Envision reader with TRF laser. Data were saved and analyzed using Prism software (GraphPad). Concentration-response analysis was performed using 4-parameter logistic fits of the resulting data, and EC50 values obtained for each test and reference compound.

[1] = cAMP EC50, nM (0.1% albumin), Table 6, 0.1% albumin
[2] = cAMP EC50, nM (0.1% albumin), Table 2, 0.1% albumin
[3] = cAMP EC50, nM (0.1% albumin), Table 4, 0.1% albumin

T1 sequence (P43220 24-463): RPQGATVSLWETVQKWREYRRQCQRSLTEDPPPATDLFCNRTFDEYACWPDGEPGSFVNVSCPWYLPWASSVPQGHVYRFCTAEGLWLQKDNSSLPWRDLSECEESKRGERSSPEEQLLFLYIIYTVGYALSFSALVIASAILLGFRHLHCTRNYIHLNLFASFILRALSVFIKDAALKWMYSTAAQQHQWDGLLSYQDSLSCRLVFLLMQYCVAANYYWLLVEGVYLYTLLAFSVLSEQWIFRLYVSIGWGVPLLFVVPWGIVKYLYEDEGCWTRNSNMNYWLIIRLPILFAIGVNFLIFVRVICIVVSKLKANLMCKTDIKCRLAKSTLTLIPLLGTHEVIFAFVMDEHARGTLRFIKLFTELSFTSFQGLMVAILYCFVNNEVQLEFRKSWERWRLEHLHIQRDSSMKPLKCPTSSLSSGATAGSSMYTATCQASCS

EC50 [1]: 10 nM
SMILES: C[C@@H](O)[C@H](NC(=O)CNC(=O)[C@H](CCC(=O)O)NC(=O)C(C)(C)NC(=O)[C@@H](N)Cc1c[nH]cn1)C(=O)N[C@@](C)(Cc1ccccc1F)C(=O)N[C@H](C(=O)N[C@@H](CO)C(=O)N[C@@H](CC(=O)O)C(=O)N[C@@H](Cc1ccc(-c2ccccc2)cc1)C(=O)N[C@@H](Cc1ccc(-c2ccccc2)cc1)C(=O)NCCOCCOCC(=O)NCCOCCOCC(N)=O)[C@@H](C)O [4-29, H2N-His-Aib-Glu-Gly-Thr-α-MePhe(2F)-Thr-Ser-Asp-Bip-Bip-C(O)(AEEA)2-NH2] (H-H[Aib]EGT[αMePhe(2-F)]TSD[Bip][Bip][AEEA][AEEA]-NH2)

EC50 [2]: 18.9 nM
SMILES: C[C@H](NC(=O)[C@@H](NC(=O)[C@H](Cc1ccccc1F)NC(=O)[C@@H](NC(=O)CNC(=O)[C@H](CCC(=O)O)NC(=O)C(C)(C)NC(=O)[C@@H](N)Cc1c[nH]cn1)[C@@H](C)O)[C@@H](C)O)C(=O)N[C@@H](CC(=O)O)C(=O)N[C@@H](Cc1ccc(-c2ccccc2)cc1)C(=O)N[C@@H](Cc1ccc(-c2ccccc2)cc1)C(N)=O [3-26, H2N-His-Aib-Glu-Gly-Thr-Phe(2-F)-Thr-Ala-Asp-Bip-Bip-C(O)NH2] (H-H[Aib]EGT[Phe(2-F)]TAD[Bip][Bip]-NH2)

EC50 [1]: 14 nM
SMILES: C[C@@H](O)[C@H](NC(=O)CNC(=O)[C@H](CCC(=O)O)NC(=O)C(C)(C)NC(=O)[C@@H](N)Cc1c[nH]cn1)C(=O)N[C@@](C)(Cc1ccccc1F)C(=O)N[C@H](C(=O)N[C@@H](CO)C(=O)N[C@@H](CC(=O)O)C(=O)N[C@@H](Cc1ccc(-c2ccccc2)cc1)C(=O)N[C@@H](Cc1ccc(-c2ccccc2)cc1)C(=O)NCCOCCOCC(=O)NCCOCCOCC(=O)NCCOCCOCC(=O)N[C@@H](CCCCN)C(N)=O)[C@@H](C)O [4-57, H2N-His-Aib-Glu-Gly-Thr-α-MePhe(2-F)-Thr-Ser-Asp-Bip-Bip-C(O)NH-RY13] (H-H[Aib]EGT[αMePhe(2-F)]TSD[Bip][Bip][AEEA][AEEA][AEEA]K-NH2)

EC50 [3]: 4.1 nM
SMILES: CC(C)C[C@H](NC(=O)[C@@H](N)Cc1ccccc1)C(=O)NC(C)(C)C(=O)N[C@@H](CCC(=O)O)C(=O)NCC(=O)N[C@H](C(=O)N[C@@](C)(Cc1ccccc1F)C(=O)N[C@H](C(=O)N[C@@H](CO)C(=O)N[C@@H](CC(=O)O)C(=O)N[C@@H](Cc1ccc(-c2ccccc2)cc1)C(=O)N[C@@H](Cc1ccc(-c2ccccc2)cc1)C(N)=O)[C@@H](C)O)[C@@H](C)O [2-8, H2N-Phe-Leu-Aib-Glu-Gly-Thr-α-MePhe(2-F)-Thr-Ser-Asp-Bip-Bip-C(O)NH2] (H-FL[Aib]EGT[αMePhe(2-F)]TSD[Bip][Bip]-NH2)

EC50 (cAMP EC50, nM (0.1% albumin), Table 1, 0.1% albumin): 26.2 nM
SMILES: C[C@@H](O)[C@H](NC(=O)CNC(=O)[C@H](CCC(=O)O)NC(=O)C(C)(C)NC(=O)[C@@H](N)Cc1c[nH]cn1)C(=O)N[C@@H](Cc1ccc(-c2ccccc2)cc1)C(=O)N[C@H](C(=O)N[C@@H](CO)C(=O)N[C@@H](CC(=O)O)C(=O)N[C@@H](Cc1ccc(-c2ccccc2)cc1)C(=O)N[C@@H](Cc1ccc(-c2ccccc2)cc1)C(N)=O)[C@@H](C)O [3-15, H2N-His-Aib-Glu-Gly-Thr-Bip-Thr-Ser-Asp-Bip-Bip-C(O)NH2] (H-H[Aib]EGT[Bip]TSD[Bip][Bip]-NH2)

SMILES: C[C@@H](O)[C@H](NC(=O)C(C)(C)NC(=O)[C@H](CCC(=O)O)NC(=O)C(C)(C)NC(=O)[C@@H](N)Cc1c[nH]cn1)C(=O)N[C@@](C)(Cc1ccccc1F)C(=O)N[C@H](C(=O)N[C@@H](CO)C(=O)N[C@@H](CC(=O)O)C(=O)N[C@@H](Cc1ccc(-c2ccccc2)cc1)C(=O)N[C@@H](Cc1ccc(-c2ccccc2)cc1)C(N)=O)[C@@H](C)O [3-32, H2N-His-Aib-Glu-Aib-Thr-αMePhe(2-F)-Thr-Ser-Asp-Bip-Bip-C(O)NH2] (H-H[Aib]E[Aib]T[αMePhe(2-F)]TSD[Bip][Bip]-NH2)
EC50 (cAMP EC50, nM (0.1% albumin), Table 3, 0.1% albumin): 15.8 nM

EC50 [1]: 130 nM
SMILES: C[C@@H](O)[C@H](NC(=O)CNC(=O)[C@H](CCC(=O)O)NC(=O)C(C)(C)NC(=O)[C@@H](N)Cc1c[nH]cn1)C(=O)N[C@@](C)(Cc1ccccc1F)C(=O)N[C@H](C(=O)N[C@@H](CO)C(=O)N[C@@H](CC(=O)O)C(=O)N[C@@H](Cc1ccc(-c2ccccc2)cc1)C(=O)N[C@H](Cc1ccc(O)cc1)C(N)=O)[C@@H](C)O [(D)-4-41, H2N-His-Aib-Glu-Gly-Thr-α-MePhe(2-F)-Thr-Ser-Asp-Bip-D-Tyr-C(O)NH2] (H-H[Aib]EGT[αMePhe(2-F)]TSD[Bip][dY]-NH2)

EC50 [2]: 79.1 nM
SMILES: C[C@H](NC(=O)[C@H](Cc1ccccc1F)NC(=O)[C@@H](NC(=O)CNC(=O)[C@H](CCC(=O)O)NC(=O)C(C)(C)NC(=O)[C@@H](N)Cc1c[nH]cn1)[C@@H](C)O)C(=O)N[C@@H](CO)C(=O)N[C@@H](CC(=O)O)C(=O)N[C@@H](Cc1ccc(-c2ccccc2)cc1)C(=O)N[C@@H](Cc1ccc(-c2ccccc2)cc1)C(N)=O [3-25, H2N-His-Aib-Glu-Gly-Thr-Phe(2-F)-Ala-Ser-Asp-Bip-Bip-C(O)NH2] (H-H[Aib]EGT[Phe(2-F)]ASD[Bip][Bip]-NH2)

EC50 [3]: 9.2 nM
SMILES: CC(C)C[C@H](NC(=O)[C@@H](N)CCC(=O)O)C(=O)NC(C)(C)C(=O)N[C@@H](CCC(=O)O)C(=O)NCC(=O)N[C@H](C(=O)N[C@@](C)(Cc1ccccc1F)C(=O)N[C@H](C(=O)N[C@@H](CO)C(=O)N[C@@H](CC(=O)O)C(=O)N[C@@H](Cc1ccc(-c2ccccc2)cc1)C(=O)N[C@@H](Cc1ccc(-c2ccccc2)cc1)C(N)=O)[C@@H](C)O)[C@@H](C)O [2-6, H2N-Glu-Leu-Aib-Glu-Gly-Thr-α-MePhe(2-F)-Thr-Ser-Asp-Bip-Bip-C(O)NH2] (H-EL[Aib]EGT[αMePhe(2-F)]TSD[Bip][Bip]-NH2)

EC50 [3]: 0.003 nM
potency compared with the parent peptide analog (1-2) (replacement of Aib2, in words): significantly greater potency
SMILES: C[C@@H](O)[C@H](NC(=O)CNC(=O)[C@H](CCC(=O)O)NC(=O)[C@]1(C)CCCN1C(=O)[C@@H](N)Cc1c[nH]cn1)C(=O)N[C@@](C)(Cc1ccccc1F)C(=O)N[C@H](C(=O)N[C@@H](CO)C(=O)N[C@@H](CC(=O)O)C(=O)N[C@@H](Cc1ccc(-c2ccccc2)cc1)C(=O)N[C@@H](Cc1ccc(-c2ccccc2)cc1)C(N)=O)[C@@H](C)O [3-40, H2N-His-α-MePro-Glu-Gly-Thr-α-MePhe(2-F)-Thr-Ser-Asp-Bip-Bip-C(O)NH2] (H-H[αMeP]EGT[αMePhe(2-F)]TSD[Bip][Bip]-NH2)

EC50 (Table 5, 0% albumin, read-out: cAMP EC50, nM (0% albumin)): 16.6 nM
EC50 [1]: 16.6 nM
SMILES: C[C@@H](O)[C@H](NC(=O)CNC(=O)[C@H](CCC(=O)O)NC(=O)C(C)(C)NC(=O)[C@@H](N)Cc1c[nH]cn1)C(=O)N[C@@](C)(Cc1ccccc1F)C(=O)N[C@H](C(=O)N[C@@H](CO)C(=O)N[C@@H](CC(=O)O)C(=O)N[C@@H](Cc1ccc(-c2ccccc2)cc1)C(=O)N[C@@H](CCc1ccc(O)cc1)C(N)=O)[C@@H](C)O [4-4, H2N-His-Aib-Glu-Gly-Thr-α-MePhe(2-F)-Thr-Ser-Asp-Bip-Hph(4-OH)-C(O)NH2] (H-H[Aib]EGT[αMePhe(2-F)]TSD[Bip][hTyr]-NH2)

EC50 [2]: 66 nM
SMILES: C[C@H](N)C(=O)NC(C)(C)C(=O)N[C@@H](CCC(=O)O)C(=O)NCC(=O)N[C@H](C(=O)N[C@@H](Cc1ccccc1F)C(=O)N[C@H](C(=O)N[C@@H](CO)C(=O)N[C@@H](CC(=O)O)C(=O)N[C@@H](Cc1ccc(-c2ccccc2)cc1)C(=O)N[C@@H](Cc1ccc(-c2ccccc2)cc1)C(N)=O)[C@@H](C)O)[C@@H](C)O [3-20, H2N-Ala-Aib-Glu-Gly-Thr-Phe(2-F)-Thr-Ser-Asp-Bip-Bip-C(O)NH2] (H-A[Aib]EGT[Phe(2-F)]TSD[Bip][Bip]-NH2)
